Laboratory results published in patent US20240075080A1, “USE OF LACTIC ACID BACTERIA TO INHIBIT METHANOGEN GROWTH OR REDUCE METHANE EMISSIONS” (Fonterra Co-Operative Group Limited, priority 2020, published 2024).

How the values were obtained:
ruminal methanogens = details: mixed rumen in vitro assay; cited from earlier work
[1] = tested on: Methanobrevibacter boviskoreani JH1; test: Plate-based methanogen bioassay of culture filtrates (Example 1, phosphate buffer); format: cell-based; details: filtered supernatant 30% v/v (nisin 4 μM); 5 days at 39° C.; OD600 relative to methanogen without treatment; 16 wells
Procedure: The inoculum of an indicator methanogen strain (Methanobrevibacter boviskoreani JH1) for seeding the plate assay was grown in 9 mL BY medium (Joblin, 2005) supplemented with 0.2 mL of 3 M sodium formate, 0.2 mL of 10 M ethanol, 0.1 mL of Vitamin Solution (Janssen et al., 1997) and 0.1 mL of Coenzyme M Solution (Sigma Aldrich, 0.1 M) by syringe using anaerobic techniques. The head spaces of the tubes were pumped with pressurized O2-free CO2 to 180 kPa and the tubes were incubated at 39° C. without shaking until visible turbidity appeared after 3 to 5 days. Methane produced by the methanogen strain was measured by removing a sample of the headspace gases by syringe and injecting on to a gas chromatograph (GC; Aerograph Corporation, USA) equipped with a Thermal Conductivity Detector (TCD) and using nitrogen as the carrier gas. […] The cultures were routinely observed via wet mounts under fluorescence microscopy, and the methanogen strain appears as short ovoid-shaped rods that fluoresce green under ultraviolet (UV) illumination. […]
Cultures of L. rhamnosus HN001, and control strains (L. plantarum ATCC 8014, L. bulgaricus ATCC 11842) were grown overnight in MRS broth (Sigma-Aldrich) at 39° C. The optical density at 600 nm (OD600) was measured for each culture, and a sample of each was serially diluted through MRS medium and the dilutions plated onto MRS agar plates to determine viable counts. […]

[2] = tested on: Methanobrevibacter boviskoreani JH1; test: Plate-based methanogen bioassay of bacteriocin extract and supernatant samples (Example 2, MOPS buffer); format: cell-based; details: for Mean % Growth JH1 / Mean % Inhibition: 30% v/v, sample 1 vs 0.9% NaCl, samples 2-7 vs MRS + NH4 lactate
Procedure: Cultures of the indicator methanogen strain were prepared according to item 1.1.1 of Example 1.
Cell and supernatant samples of L. rhamnosus HN001 were derived from a commercial manufacturing run of ˜5,000 L under standard production conditions. Four samples were used, consisting of: • Sample 1. L. rhamnosus HN001 cell sample, unwashed, freeze-dried, low pH extract. • Sample 2. L. rhamnosus HN001 supernatant sample, evaporated @50° C., 35% solids, ˜8× concentrated. • Sample 3. L. rhamnosus HN001 supernatant sample, evaporated @50° C., 45%+solids; ˜11× concentrated. • Sample 4. L. rhamnosus HN001 supernatant sample, freeze-dried.
These samples were kept frozen at −20° C. until needed. Prior to bioassay, the cell sample (Sample 1) was resuspended at 5% (wt/vol) in 0.9% NaCl, pH 6.8, and processed using the bacteriocin extraction method described in 2.1.3 below, resulting in an extract which was stored frozen at −20° C. until use. The evaporated supernatant samples (Samples 2 & 3) and the freeze-dried supernatant sample (Sample 4) were also resuspended at 5% (wt/vol) in 0.9% NaCl, pH 6.8 and filtered through Millex-GP 0.22 μm 25 mm diameter sterile filters (Millipore, Merck, Sigma-Aldrich NZ) into sterile N2-flushed Hungate tubes using 10 mL syringes. The headspace of the Hungate tubes were further flushed for 30 min with a sterile flow of N2 to remove traces of O2 from the samples.
Heat treatments were carried out with the L. rhamnosus HN001 supernatant which generated a further three samples as follows: • Sample 5. L. rhamnosus HN001 supernatant sample, heated at 72° C./15 sec. • Sample 6. L. rhamnosus HN001 supernatant sample, heated at 75° C./4 min. • Sample 7. L. rhamnosus HN001 supernatant sample, heated at 100° C./4 min.
After heat treatment, the samples were filtered through 0.22 μm filters as described above into sterile N2-flushed Hungate tubes and the headspace flushed with a sterile flow of N2. The samples were stored at −20° C. until screening in the indicator methanogen bioassay.
The resuspended culture was transferred into a 15 mL Falcon tube and the pH adjusted to ˜6.8 with 6M NaOH. The pH-adjusted culture sample was incubated at 70° C. for 45 minutes, then centrifuged for 15 min at 2600×g at 4° C. The supernatant was decanted and the cell pellet was resuspended in 8 mL 0.9% NaCl, pH 2. The pH of the resuspended pellet was checked and if necessary, 1M HCl was used to adjust the final pH to 2. The cells were incubated for 2 hours at 4° C. with slow agitation on a shaking platform. The cells were then centrifuged at 2600×g for 15 min at 4° C., and the supernatant collected into a fresh 15 mL Falcon tube. The pH of the supernatant was adjusted 6.8 with 1M NaOH. The pH-adjusted supernatant was filtered through a Millex-GP 0.22 μm 25 mm diameter sterile filter (Millipore, Merck, Sigma-Aldrich NZ) into a sterile N2-flushed Hungate tube using a 10 mL syringe, under sterile conditions. The filtered supernatant was frozen at −20° C. until use.
The bacteriocin extracts contained under anaerobic conditions in Hungate tubes were placed into an anaerobic chamber and allowed to thaw. All of the assay components except the bacteriocin extracts, were added and mixed in a sterile Hungate tube inside the anaerobic chamber in proportion to those indicated in Table 3 and then dispensed into wells of a multiwell 96 well plate containing the bacteriocin extracts. […]

[3] = nisin >1 μM added to alfalfa hay; cited from earlier work

| Substance | reduction of methane production (ruminal methanogens) | % methanogen growth [1] | inhibition of growth of the indicator methanogen strain (in words) [2] | Mean % Growth JH1 ([2]; Assay 1) | Mean % Inhibition ([2]; Assay 1) | Mean % Growth JH1 ([2]; Assay 2) | Mean % Inhibition ([2]; Assay 2) | ratio of acetate to propionate production (in words) [3] |
| --- | --- | --- | --- | --- | --- | --- | --- | --- |
| bovicin HC5 | 50% | – | – | – | – | – | – | – |
| Nisin | – | 12.2% | strong inhibition | 5.2% | 97.5% | 18.2% | 81.8% | reduced |
